In PubChem BioAssay (NCI):
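48-hour exposure; five concentrations; linearly interpolated endpoints. TGI is the concentration that stops growth completely.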

Experiments:
Assay in all cases: inhibition of tumour cell growth, NCI panel, 48 h
786-0 renal = tested on: 786-0 renal
A498 renal = tested on: A498 renal
A549 NSCLC = tested on: A549 NSCLC
ACHN renal = tested on: ACHN renal
CAKI-1 renal = tested on: CAKI-1 renal
CCRF-CEM leukemia = tested on: CCRF-CEM leukemia
COLO 205 colon = tested on: COLO 205 colon
DLD-1 colon = tested on: DLD-1 colon
DMS 114 small cell lung = tested on: DMS 114 small cell lung
DMS 273 small cell lung = tested on: DMS 273 small cell lung
EKVX NSCLC = tested on: EKVX NSCLC
HCC-2998 colon = tested on: HCC-2998 colon
HCT-116 colon = tested on: HCT-116 colon
HCT-15 colon = tested on: HCT-15 colon
HL-60(TB) leukemia = tested on: HL-60(TB) leukemia
HOP-18 NSCLC = tested on: HOP-18 NSCLC
HOP-62 NSCLC = tested on: HOP-62 NSCLC
HOP-92 NSCLC = tested on: HOP-92 NSCLC
HT29 colon = tested on: HT29 colon
IGROV1 ovarian = tested on: IGROV1 ovarian
K-562 leukemia = tested on: K-562 leukemia
KM12 colon = tested on: KM12 colon
KM20L2 colon = tested on: KM20L2 colon
LOX IMVI melanoma = tested on: LOX IMVI melanoma
LXFL 529 NSCLC = tested on: LXFL 529 NSCLC
M14 melanoma = tested on: M14 melanoma
M19-MEL melanoma = tested on: M19-MEL melanoma
MALME-3M melanoma = tested on: MALME-3M melanoma
MOLT-4 leukemia = tested on: MOLT-4 leukemia
NCI-H226 lung = tested on: NCI-H226 lung
NCI-H23 lung = tested on: NCI-H23 lung
NCI-H460 lung = tested on: NCI-H460 lung
OVCAR-3 ovarian = tested on: OVCAR-3 ovarian
OVCAR-4 ovarian = tested on: OVCAR-4 ovarian
OVCAR-5 ovarian = tested on: OVCAR-5 ovarian
OVCAR-8 ovarian = tested on: OVCAR-8 ovarian
RPMI-8226 leukemia = tested on: RPMI-8226 leukemia
RXF 393 renal = tested on: RXF 393 renal
RXF-631 renal = tested on: RXF-631 renal
SF-268 CNS = tested on: SF-268 CNS
SF-295 CNS = tested on: SF-295 CNS
SF-539 CNS = tested on: SF-539 CNS
SK-MEL-2 melanoma = tested on: SK-MEL-2 melanoma
SK-MEL-28 melanoma = tested on: SK-MEL-28 melanoma
SK-OV-3 ovarian = tested on: SK-OV-3 ovarian
SN12C renal = tested on: SN12C renal
SNB-75 CNS = tested on: SNB-75 CNS
SNB-78 CNS = tested on: SNB-78 CNS
SR leukemia = tested on: SR leukemia
SW-620 colon = tested on: SW-620 colon
TK-10 renal = tested on: TK-10 renal
U251 CNS = tested on: U251 CNS
UACC-257 melanoma = tested on: UACC-257 melanoma
UACC-62 melanoma = tested on: UACC-62 melanoma
UO-31 renal = tested on: UO-31 renal
XF 498 CNS = tested on: XF 498 CNS
NCI-H522 lung = tested on: NCI-H522 lung
SK-MEL-5 melanoma = tested on: SK-MEL-5 melanoma
SNB-19 CNS = tested on: SNB-19 CNS

With `COC(=O)c1cc(-c2ccc(OC)c(OC)c2)oc1-c1ccc(OC)c(OC)c1` the TGI (786-0 renal) was greater than 100 µM, the TGI (A498 renal) was 59.5 µM and the TGI (A549 NSCLC) was greater than 100 µM. The TGI (ACHN renal) was greater than 100 µM, the TGI (CAKI-1 renal) was greater than 100 µM and the TGI (CCRF-CEM leukemia) was greater than 100 µM. The TGI (COLO 205 colon) was 39.4 µM, the TGI (DLD-1 colon) was greater than 100 µM and the TGI (DMS 114 small cell lung) was 95.5 µM. The TGI (DMS 273 small cell lung) was greater than 100 µM, the TGI (EKVX NSCLC) was greater than 100 µM and the TGI (HCC-2998 colon) was greater than 100 µM. The TGI (HCT-116 colon) was greater than 100 µM, the TGI (HCT-15 colon) was greater than 100 µM and the TGI (HL-60(TB) leukemia) was greater than 100 µM. The TGI (HOP-18 NSCLC) was greater than 100 µM, the TGI (HOP-62 NSCLC) was greater than 100 µM and the TGI (HOP-92 NSCLC) was 71.4 µM. The TGI (HT29 colon) was greater than 100 µM, the TGI (IGROV1 ovarian) was greater than 100 µM and the TGI (K-562 leukemia) was greater than 100 µM. It also gave a TGI (KM12 colon) greater than 100 µM, a TGI (KM20L2 colon) greater than 100 µM and a TGI (LOX IMVI melanoma) greater than 100 µM. The TGI (LXFL 529 NSCLC) was greater than 100 µM, the TGI (M14 melanoma) was greater than 100 µM and the TGI (M19-MEL melanoma) was greater than 100 µM. For the same molecule, the TGI (MALME-3M melanoma) was greater than 100 µM, the TGI (MOLT-4 leukemia) was greater than 100 µM and the TGI (NCI-H226 lung) was greater than 100 µM. It also gave a TGI (NCI-H23 lung) greater than 100 µM, a TGI (NCI-H460 lung) greater than 100 µM and a TGI (OVCAR-3 ovarian) greater than 100 µM. The TGI (OVCAR-4 ovarian) was greater than 100 µM, the TGI (OVCAR-5 ovarian) was greater than 100 µM and the TGI (OVCAR-8 ovarian) was greater than 100 µM. It also gave a TGI (RPMI-8226 leukemia) greater than 100 µM, a TGI (RXF 393 renal) of 72.7 µM and a TGI (RXF-631 renal) greater than 100 µM. For the same molecule, the TGI (SF-268 CNS) was greater than 100 µM, the TGI (SF-295 CNS) was greater than 100 µM and the TGI (SF-539 CNS) was 96.2 µM. For the same molecule, the TGI (SK-MEL-2 melanoma) was greater than 100 µM, the TGI (SK-MEL-28 melanoma) was greater than 100 µM and the TGI (SK-OV-3 ovarian) was greater than 100 µM. The TGI (SN12C renal) was 93.6 µM, the TGI (SNB-75 CNS) was greater than 100 µM and the TGI (SNB-78 CNS) was greater than 100 µM. The TGI (SR leukemia) was greater than 100 µM, the TGI (SW-620 colon) was greater than 100 µM and the TGI (TK-10 renal) was greater than 100 µM. It also gave a TGI (U251 CNS) greater than 100 µM, a TGI (UACC-257 melanoma) greater than 100 µM and a TGI (UACC-62 melanoma) greater than 100 µM. The TGI (UO-31 renal) was greater than 100 µM and the TGI (XF 498 CNS) was greater than 100 µM.
`COc1cc2c(cc1OC)C1Cc3sccc3CN1CC2` (stereo not given) gave a TGI (A549 NSCLC) greater than 100 µM, a TGI (ACHN renal) greater than 100 µM and a TGI (CAKI-1 renal) greater than 100 µM. For the same molecule, the TGI (CCRF-CEM leukemia) was greater than 100 µM, the TGI (DLD-1 colon) was greater than 100 µM and the TGI (DMS 114 small cell lung) was greater than 100 µM. For the same molecule, the TGI (DMS 273 small cell lung) was greater than 100 µM, the TGI (EKVX NSCLC) was greater than 100 µM and the TGI (HCC-2998 colon) was greater than 100 µM. The TGI (HCT-116 colon) was greater than 100 µM, the TGI (HCT-15 colon) was greater than 100 µM and the TGI (HL-60(TB) leukemia) was greater than 100 µM. It also gave a TGI (HOP-18 NSCLC) greater than 100 µM, a TGI (HOP-62 NSCLC) greater than 100 µM and a TGI (HOP-92 NSCLC) greater than 100 µM. It also gave a TGI (HT29 colon) greater than 100 µM, a TGI (IGROV1 ovarian) greater than 100 µM and a TGI (K-562 leukemia) greater than 100 µM. It also gave a TGI (KM20L2 colon) greater than 100 µM, a TGI (LOX IMVI melanoma) greater than 100 µM and a TGI (LXFL 529 NSCLC) greater than 100 µM. It also gave a TGI (M14 melanoma) greater than 100 µM, a TGI (M19-MEL melanoma) greater than 100 µM and a TGI (MALME-3M melanoma) greater than 100 µM. The TGI (MOLT-4 leukemia) was greater than 100 µM, the TGI (NCI-H226 lung) was greater than 100 µM and the TGI (NCI-H23 lung) was greater than 100 µM. The TGI (NCI-H460 lung) was greater than 100 µM, the TGI (NCI-H522 lung) was greater than 100 µM and the TGI (OVCAR-3 ovarian) was greater than 100 µM. For the same molecule, the TGI (OVCAR-4 ovarian) was greater than 100 µM, the TGI (OVCAR-5 ovarian) was greater than 100 µM and the TGI (OVCAR-8 ovarian) was greater than 100 µM. For the same molecule, the TGI (RPMI-8226 leukemia) was greater than 100 µM, the TGI (RXF 393 renal) was greater than 100 µM and the TGI (RXF-631 renal) was greater than 100 µM. For the same molecule, the TGI (SF-268 CNS) was greater than 100 µM, the TGI (SF-295 CNS) was greater than 100 µM and the TGI (SF-539 CNS) was greater than 100 µM. The TGI (SK-MEL-2 melanoma) was greater than 100 µM, the TGI (SK-MEL-5 melanoma) was greater than 100 µM and the TGI (SK-OV-3 ovarian) was greater than 100 µM. The TGI (SN12C renal) was greater than 100 µM, the TGI (SNB-19 CNS) was greater than 100 µM and the TGI (SNB-75 CNS) was greater than 100 µM. For the same molecule, the TGI (SNB-78 CNS) was greater than 100 µM, the TGI (SR leukemia) was greater than 100 µM and the TGI (SW-620 colon) was greater than 100 µM. For the same molecule, the TGI (TK-10 renal) was greater than 100 µM, the TGI (U251 CNS) was greater than 100 µM and the TGI (UACC-257 melanoma) was greater than 100 µM. For the same molecule, the TGI (UACC-62 melanoma) was greater than 100 µM, the TGI (UO-31 renal) was greater than 100 µM and the TGI (XF 498 CNS) was greater than 100 µM.
`NC(N)=N/N=C(/CC1OC(=O)c2ccccc21)c1ccc2ccccc2c1` (stereo not given) gave a TGI (786-0 renal) of 32.4 µM, a TGI (A498 renal) of 33.4 µM and a TGI (ACHN renal) of 33.7 µM. The TGI (CAKI-1 renal) was greater than 100 µM, the TGI (CCRF-CEM leukemia) was 43.8 µM and the TGI (COLO 205 colon) was 39 µM. The TGI (DLD-1 colon) was 28 µM, the TGI (DMS 114 small cell lung) was 25.6 µM and the TGI (DMS 273 small cell lung) was 44.9 µM. The TGI (EKVX NSCLC) was 52.9 µM, the TGI (HCC-2998 colon) was 31.1 µM and the TGI (HCT-15 colon) was 31.7 µM. The TGI (HL-60(TB) leukemia) was 41.9 µM, the TGI (HOP-18 NSCLC) was 43.3 µM and the TGI (HOP-62 NSCLC) was 42.1 µM. For the same molecule, the TGI (HOP-92 NSCLC) was 55 µM, the TGI (HT29 colon) was 45.7 µM and the TGI (IGROV1 ovarian) was 47.2 µM. It also gave a TGI (K-562 leukemia) of 67 µM, a TGI (KM12 colon) of 26.6 µM and a TGI (KM20L2 colon) of 57.2 µM. The TGI (LOX IMVI melanoma) was greater than 100 µM, the TGI (LXFL 529 NSCLC) was 27.7 µM and the TGI (M14 melanoma) was 30.3 µM. It also gave a TGI (M19-MEL melanoma) of 31.6 µM, a TGI (MALME-3M melanoma) of 30 µM and a TGI (MOLT-4 leukemia) of 79.4 µM. For the same molecule, the TGI (NCI-H226 lung) was 32.4 µM, the TGI (NCI-H23 lung) was 88.6 µM and the TGI (NCI-H460 lung) was 32.5 µM. For the same molecule, the TGI (NCI-H522 lung) was 28.8 µM, the TGI (OVCAR-3 ovarian) was 38.3 µM and the TGI (OVCAR-4 ovarian) was 37.4 µM. It also gave a TGI (OVCAR-5 ovarian) greater than 100 µM, a TGI (OVCAR-8 ovarian) of 31.5 µM and a TGI (RPMI-8226 leukemia) of 48 µM. It also gave a TGI (RXF-631 renal) of 65.2 µM, a TGI (SF-268 CNS) of 31.8 µM and a TGI (SF-295 CNS) greater than 100 µM. It also gave a TGI (SF-539 CNS) of 31.9 µM, a TGI (SK-MEL-2 melanoma) greater than 100 µM and a TGI (SK-MEL-28 melanoma) of 35.2 µM. For the same molecule, the TGI (SK-MEL-5 melanoma) was 35.8 µM, the TGI (SK-OV-3 ovarian) was 74 µM and the TGI (SN12C renal) was 42.2 µM. The TGI (SNB-19 CNS) was greater than 100 µM, the TGI (SNB-75 CNS) was 47.7 µM and the TGI (SNB-78 CNS) was greater than 100 µM. The TGI (SR leukemia) was 33.6 µM, the TGI (TK-10 renal) was 35 µM and the TGI (U251 CNS) was 30.1 µM. The TGI (UACC-257 melanoma) was 28.7 µM, the TGI (UACC-62 melanoma) was 34.7 µM and the TGI (UO-31 renal) was 32.7 µM. It also gave a TGI (XF 498 CNS) of 20.9 µM.
